Earlier results in patent US20220362410A1, “PREFERRED ANTERIOR CAPSULOTOMY LOCATION PROVIDED BY TRYPAN BLUE OPTHALMIC SOLUTION” (Excel-Lens, Inc., priority 2018, published 2022).

Test system: cell toxicity
Settings: concentrations above the range 0.2 to 0.45%

Cc1cc(-c2ccc(/N=N/c3c(S(=O)(=O)O)cc4cc(S(=O)(=O)O)cc(N)c4c3O)c(C)c2)ccc1/N=N/c1c(S(=O)(=O)O)cc2cc(S(=O)(=O)O)cc(N)c2c1O [Trypan Blue]
cell toxicity: cell toxicity was noted
